The text below walks through data of PubChem BioAssay (NCI).

Test systems include BT-549 breast; HS 578T breast; T-47D breast; DU-145 prostate; NCI/ADR-RES ovarian.
Common to all, as to test: inhibition of tumour cell growth, NCI panel, 48 h

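Each compound was tested at five concentrations against cells in 96-well plates for 48 hours. GI50: concentration for 50% inhibition of growth. TGI marks complete inhibition of growth.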

As for `Nc1nccc(-c2c(-c3ccc(F)cc3)ncn2C2CCC(O)CC2)n1` (stereo not given), the GI50 in the test with BT-549 breast was 11.7 µM; with HS 578T breast, 8.21 µM; in the test on T-47D breast, 3.56 µM; in the test with DU-145 prostate, 11.2 µM; in the test with NCI/ADR-RES ovarian, greater than 18 µM. Moreover, the TGI in the test with BT-549 breast was greater than 25 µM; in the test on HS 578T breast it was greater than 25 µM; in the test with T-47D breast, greater than 19 µM; with DU-145 prostate it was greater than 25 µM; in the test on NCI/ADR-RES ovarian, greater than 25 µM.
Regarding `CCCCCCCC[C@@H](O)CC(=O)N[C@@H](CC(N)=O)C(=O)N[C@@H](CCC(N)=O)C(=O)N[C@@H](CC(=O)c1cc(C)cc(O)c1C(=O)c1c(O)cccc1O)CC(C)C`, the GI50 was 0.296 µM in the test with BT-549 breast; 3.46 µM in the test on HS 578T breast; 1.15 µM in the test on T-47D breast; 1.14 µM with DU-145 prostate; 39.6 µM in the test with NCI/ADR-RES ovarian. Besides, the TGI with BT-549 breast is 2.25 µM; in the test with HS 578T breast it was 62 µM; in the test on T-47D breast, 4.51 µM; in the test with DU-145 prostate, 18.3 µM; in the test on NCI/ADR-RES ovarian it was greater than 100 µM.
Consider `CCCn1c(=S)sc2c1nc(C)n1c(Nc3ccccc3)nnc21`, for which the GI50 with BT-549 breast is 2.99 µM; in the test on HS 578T breast, 3.55 µM; in the test with T-47D breast, 1.63 µM; with NCI/ADR-RES ovarian it was 3.53 µM. Also, the TGI with BT-549 breast was 12 µM; in the test with HS 578T breast, 36 µM; in the test with T-47D breast, 8.25 µM; in the test with NCI/ADR-RES ovarian, 41.9 µM.
On to `Cc1ccc(C(=O)N(CCCN)C(c2oc3cc(Cl)ccc3c(=O)c2Cc2ccccc2)C(C)C)cc1` (stereo not given), for which the GI50 is less than 0.01 µM in the test with BT-549 breast; less than 0.01 µM in the test with HS 578T breast; less than 0.01 µM with T-47D breast; less than 0.01 µM in the test on DU-145 prostate; 0.11 µM in the test on NCI/ADR-RES ovarian. In addition, the TGI stood at 2.03 µM in the test on BT-549 breast, 1.46 µM with HS 578T breast, 2.02 µM with T-47D breast and 1.17 µM in the test on NCI/ADR-RES ovarian.
On to `Cc1cc2c(cc1Cl)SC1=NN(C)S(=O)N1S2(=O)=O` (stereo not given), for which the GI50 in the test with BT-549 breast, with HS 578T breast, in the test with T-47D breast, with DU-145 prostate and in the test on NCI/ADR-RES ovarian was greater than 100 µM throughout. Besides, the TGI with BT-549 breast, in the test on HS 578T breast, in the test on T-47D breast, with DU-145 prostate and in the test with NCI/ADR-RES ovarian was greater than 100 µM throughout.
Consider `CCCC(=O)OCC1OC(n2cnc3c(=S)nc[nH]c32)C(OC(=O)CCC)C1OC(=O)CCC` (stereo not given), for which the GI50 was 14.3 µM in the test with BT-549 breast; greater than 100 µM in the test on HS 578T breast; 0.794 µM in the test on T-47D breast; 3.06 µM with DU-145 prostate; 8.15 µM in the test with NCI/ADR-RES ovarian. In addition, the TGI in the test on BT-549 breast, with HS 578T breast, in the test on T-47D breast, in the test with DU-145 prostate and in the test with NCI/ADR-RES ovarian was greater than 100 µM throughout.
As to `N#CC(C#N)=C1Nc2ccccc2S1`, the GI50 in the test with HS 578T breast was 34.1 µM; with T-47D breast, 35.8 µM; with DU-145 prostate, 49.2 µM; with NCI/ADR-RES ovarian, 23.8 µM. Also, the TGI with HS 578T breast was 85.9 µM; in the test with T-47D breast, greater than 100 µM; in the test with DU-145 prostate, greater than 100 µM; in the test on NCI/ADR-RES ovarian it was 69.5 µM.
With `Cc1cc(-c2cnn3c(NCC4CC(C)(O)C4)cc(Oc4cccnc4)nc23)ccc1C(=O)NC1CC1` (stereo not given), the GI50 with BT-549 breast is greater than 100 µM; with HS 578T breast, 4.19 µM; in the test on DU-145 prostate, 2.26 µM; in the test with NCI/ADR-RES ovarian it was greater than 100 µM. Besides, the TGI in the test on BT-549 breast, with HS 578T breast, with DU-145 prostate and in the test with NCI/ADR-RES ovarian was greater than 100 µM in each case.
Take `O=c1cc(-c2ccccc2)oc2cc(OC/C(=N/O)c3ccccc3)ccc12`: the GI50 in the test on BT-549 breast is 12.4 µM; with T-47D breast, greater than 50 µM; in the test on DU-145 prostate, 25.1 µM; in the test with NCI/ADR-RES ovarian it was 19.8 µM. Moreover, the TGI in the test on BT-549 breast is 27.8 µM; with T-47D breast, greater than 50 µM; in the test with DU-145 prostate it was greater than 50 µM; with NCI/ADR-RES ovarian, greater than 50 µM.
`Nc1nc(N(Cc2ccccc2)c2ccccc2)c2cn[nH]c2n1`: the GI50 with BT-549 breast is 3.95 µM; with HS 578T breast, 2.7 µM; in the test on T-47D breast, 4.34 µM; in the test on DU-145 prostate it was 4.57 µM. The TGI in the test with BT-549 breast was greater than 100 µM; in the test with HS 578T breast it was 7.91 µM; in the test on T-47D breast, greater than 100 µM; in the test with DU-145 prostate, greater than 100 µM.
With `O=C(CC1C(=O)NN(c2ccc(Br)cc2)C1=O)c1cc(O)ccc1O` (stereo not given), the GI50 is 13.9 µM in the test on BT-549 breast, 26.2 µM in the test on HS 578T breast, 21.2 µM in the test with DU-145 prostate and 19.6 µM in the test on NCI/ADR-RES ovarian. Further, the TGI in the test with BT-549 breast, in the test with HS 578T breast, with DU-145 prostate and in the test on NCI/ADR-RES ovarian was greater than 50 µM in each case.
With `NC(=O)NS(=O)(=O)c1ccc(N2N=C(C(F)(F)F)CC2c2cc(C(F)(F)F)cc(C(F)(F)F)c2)cc1` (stereo not given), the GI50 with BT-549 breast was 4.28 µM; in the test with T-47D breast it was 3.73 µM; in the test with DU-145 prostate it was 3.54 µM; in the test with NCI/ADR-RES ovarian it was 6.95 µM. Also, the TGI in the test with BT-549 breast was 16.5 µM; in the test with T-47D breast, 17.2 µM; with DU-145 prostate, 15.1 µM; in the test on NCI/ADR-RES ovarian, 21.6 µM.
